“Also recorded” adds a separate entry of the source. Like-named read-outs stand apart in the source and are kept apart here.
Experiments:
[1] = tested on: NSCLC cell lines A549 and H1299; SCLC cell lines DMS114 and H128; experiment: cell growth (SRB) and apoptosis (Annexin V/PI), lines with lower or undetectable Bcl2; type: cell-based; details: relatively lower or undetectable levels of endogenous Bcl2
Procedure: The effect of BDA-2 on cell growth and apoptosis was measured by SRB assay and Annexin V/PI binding, respectively, in both small cell lung cancer (SCLC) and non-small cell lung cancer (NSCLC) cell lines that express various levels of endogenous Bcl2.

H460 cells [2] = experiment: H460 cells: Bcl2/BH3 immunofluorescence, Bcl2 expression, mitochondrial dysfunction; type: cell-based
[3] = tested on: PDX obtained from a patient with refractory SCLC; experiment: patient-derived xenografts (PDX) of refractory SCLC; type: in vivo, Mice; details: 20 mg/kg/d i.p., 2 weeks
Procedure: Mice carrying xenografts derived from a patient with refractory SCLC were treated with BDA-366 (20 mg/kg/d) via i.p. for 2 weeks.
To evaluate the anti-tumor activity of BDA-2 against SCLC in vivo, patient-derived xenografts (PDX) were established without intervening in vitro culture, which are expected to better recapitulate the SCLC tumor setting.

[4] = tested on: D10A, N11A, R12A, E13A, M16A, K17A, H20A and D31A Bcl2 mutants; experiment: competitive fluorescence polarization, BH4 single-site mutants; type: binding; details: single mutation at each individual residue
Description: (§1) A panel of Bcl2 mutants were generated within the BH4 domain at the specific residues that were identified by the initial docking simulations, including D10A, N11A, R12A, E13A, M16A, K17A, H20A and D31A Bcl2 mutants. A compound Bcl2 mutant D10A/N11A/R12A/E13A (AAAA) was created. Recombinant proteins of these mutants were generated for BDA-2/Bcl2 binding analysis using a competitive fluorescence polarization. […] Second, WT and all Bcl2 mutants were exogenously overexpressed in H1299 cells that express undetectable levels of endogenous Bcl2.

[5] = biological target: purified, human Bcl2 protein (Homo sapiens, UniProt P10415); experiment: competition fluorescence polarization assay (FITC-QDCMWSGFSA peptide); type: binding; details: 3 nM peptide, 6 nM Bcl2
Procedure: Thus, the change of mP reflects the interaction between the fluorescent-labeled peptide and the Bcl2 protein. Data (i.e. mP value) can be imported into Prism 3.0 to determine the dissociation constant (Kd) and the binding range for each peptide.
This interaction between Bcl2 and the peptide forms the basis for the fluorescence polarization assay.
The plate was mixed on a shaker for 1 min and incubated at room temperature for an additional 15 min. The polarization, as defined as mP units, was measured at room temperature with a fluorescence microplate reader (Wallace, Calif.). A negative control (DMSO, 3 nM peptide and assay buffer) and a positive control (DMSO, 3 nM peptide, 6 nM Bcl2 and assay buffer) were used to determine the range of the assay.

H460 cells [6] = experiment: autophagy (LC3-II, GFP-LC3); type: cell-based
Procedure: Bcl2 directly interacts with Beclin-1 and suppresses Beclin-1-dependent autophagy. Inhibition of Bcl2 by ABT-737 not only induces apoptosis but also autophagy. […] To test whether disruption of Bcl2 BH4 by BDA-2 stimulates autophagy, H460 cells were treated with BDA-366 (1 μM) for 24 h. […] To further quantify the level of autophagy, a GFP-LC3 construct was used to indicate autophagosomes.

Bfl-1/A1 = Bfl-1/A1 (Homo sapiens, UniProt Q16548); experiment: binding to other Bcl2 family members
[7] = tested on: Bcl2 and Bax in H460 xenograft tumor tissues; experiment: QD-IHF of Bcl2 and Bax conformational change in tumor tissues; type: in vivo, mice; details: 14 days
Description: Quantum dot-based immunohistofluorescence (QD-IHF) technology has recently been developed as a valuable tool for simultaneous and concurrent immunostaining of multiple biomarkers in formalin-fixed paraffin-embedded (FFPE) tissues, thereby allowing for quantification of several biomarkers simultaneously on the same tissue slide. To determine whether BDA-366 induces Bcl2 conformation change by exposure of its BH3 domain in tumor tissues and whether the BH3 domain-exposed Bcl2 activates Bax, conformational changes in both Bcl2 and Bax were simultaneously analyzed by QD-IHF on the same tissue slide.

human lung cancer cells = experiment: screening of cytotoxicity by sulforhodamine B (SRB) assay; type: cell-based; details: among top 200 docked small molecules
Description: A library containing approximately 300,000 small molecules from the National Cancer Institute (NCI) was used to dock the structural pocket of the BH4 domain. The small molecules were ranked according to their energy scores. The top 200 small molecules were selected for screening of cytotoxicity in human lung cancer cells by sulforhodamine B (SRB) assay.

[8] = tested on: Bcl2 ΔBH1 deletion mutant protein; experiment: fluorescence polarization assay with fluorescent Bak peptide; type: binding
Procedure: (§2) Purified recombinant WT and a panel of Bcl2 BH domain deletion mutant proteins (i.e. ΔBH1, ΔBH2, ΔBH3 and ΔBH4) were commercially obtained from ProteinX Lab. To directly measure BDA-2/Bcl2 binding, a fluorescence polarization assay with a fluorescent Bak peptide (5′-[…]) was performed.

[9] = tested on: Bcl2 ΔBH2 deletion mutant protein; experiment: as above; type: binding
Procedure: as §2

[10] = tested on: BH4 domain deficient Bcl2 mutant protein (ΔBH4); experiment: as above; type: binding
Procedure: as §2

[11] = tested on: normal small airway epithelial cell line (SAEC); experiment: cell growth (SRB) and apoptosis (Annexin V/PI), normal cells; type: cell-based
purified recombinant Bax = experiment: cell-free Bax activation (IP using 6A7 Bax antibody); type: biochemical
Procedure: BDA-366-induced Bcl2 conformational change was also confirmed by immunofluorescence using a Bcl2/BH3-domain specific antibody. […] To test this possibility, a 6A7 Bax antibody that only recognizes the conformationally changed, active, form of Bax was employed. Purified Bcl2 was treated with BDA-366 in lysis buffer for 1 h. The mixture of Bcl2/BDA-2 was then incubated with purified recombinant Bax for another 2 h, followed by IP using 6A7 antibody.
To further test whether the BH3 domain of Bcl2 is important for BDA-366 activation of Bax, purified recombinant WT and the BH3 deletion (ΔBH3) mutant Bcl2 proteins were incubated with purified Bax protein in the absence or presence of BDA-366, followed by IP with 6A7 antibody. […] To test this at the cellular or mitochondrial level, WT, ΔBH3 Bcl2 mutant and empty vector (pCIneo) were transfected into H1299 cells that express undetectable levels of endogenous Bcl2 but high levels of endogenous Bax. Cells or isolated mitochondria from these cells were treated with BDA-2, followed by IP with Bcl2 BH3 or 6A7 antibody, respectively.

[12] = tested on: wild type (WT) and Bax knockout (Bax−/−) MEF cells; experiment: apoptotic effect on WT and Bax knockout MEF cells; type: cell-based
Procedure: (§3) To further determine whether Bax is important for BDA-2 induction of apoptosis, the apoptotic effect of BDA-366 was tested on wild type (WT) and Bax knockout (Bax−/−) MEF cells. […] To test whether BDA-2/BH4 binding affects the IP3R/Bcl2 interaction and Ca2+ release, H460 cells were treated with increasing concentrations of BDA-366 for 24 h.

H460 cells [13] = experiment: IP3R/Bcl2 interaction and Ca2+ release; type: cell-based; details: increasing concentrations, 24 h
Procedure: as §3

[14] = tested on: H1299 cells overexpressing WT or Bcl2 single site mutants; experiment: cell survival of H1299 cells overexpressing exogenous WT or single site Bcl2 mutants; type: cell-based
Description: as §1

Bfl-1/A1, sequence (Q16548 whole entry): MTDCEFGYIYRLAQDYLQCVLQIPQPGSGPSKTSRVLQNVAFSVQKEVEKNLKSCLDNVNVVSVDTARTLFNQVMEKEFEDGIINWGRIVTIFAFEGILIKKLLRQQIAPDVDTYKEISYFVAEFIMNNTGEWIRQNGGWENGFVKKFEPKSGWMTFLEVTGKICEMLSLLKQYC
purified, human Bcl2 protein, sequence (P10415 whole entry): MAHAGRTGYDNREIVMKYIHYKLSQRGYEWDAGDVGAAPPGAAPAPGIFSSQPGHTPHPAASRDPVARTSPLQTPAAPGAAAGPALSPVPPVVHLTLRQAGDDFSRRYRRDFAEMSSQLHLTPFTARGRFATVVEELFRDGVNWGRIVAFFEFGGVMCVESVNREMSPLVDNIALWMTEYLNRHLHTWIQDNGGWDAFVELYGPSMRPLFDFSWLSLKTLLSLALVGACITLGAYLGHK

CCN(CC)CC(O)CNc1ccc(NCC2CO2)c2c1C(=O)c1ccccc1C2=O (stereo not drawn) [BDA-366, 1-((3-(diethylamino)-2-hydroxypropyl)amino)-4-((oxiran-2-ylmethyl)amino)anthracene-9,10-dione] was tested, and the sensitivity of cells [1] was “less sensitive”, the Bcl2 expression level (H460 cells [2]) was “did not significantly affect Bcl2 expression level” and the “Bcl2 immunofluorescence with Bcl2/BH3-domain specific antibody” value (H460 cells [2]) was “enhanced significantly”. For the same compound, the “mitochondrial dysfunction and apoptosis” value (H460 cells [2]; MitoSOX red staining, Cyt c release, PARP cleavage) was “resulted in mitochondrial dysfunction”, the “growth of SCLC PDX” value [3] was “effectively suppressed the growth of PDX; also recorded: potently suppressed the growth of the SCLC PDX; also recorded: represses tumor growth in xenografts derived from SCLC patient” and the “binding to single-site Bcl2 mutants” value [4] was “did not significantly reduce Bcl2's ability to bind BDA-2”. The Ki [5] was 0.93 ± 0.08 nM, the “levels of LC3-II” value (H460 cells [6]; 1 μM, 24 h) was “Increased levels of LC3-II” and the “percentage of GFP-LC3vac cells” value (H460 cells [6]; compared to DMSO control) was “significantly increases”. The “binding to Bfl-1/A1” value (Bfl-1/A1) was “failed to bind”, the “binding to Bfl-1/A1” value (Bfl-1/A1; listed as BDA-2) was “did not bind” and the “6A7 binding to Bax (active form of Bax) in tumor tissues” value [7] was “increased level of 6A7 binding to Bax”. The “exposure of the Bcl2 BH3 domain in tumor tissues” value [7] was “dose-dependent exposure of the Bcl2 BH3 domain in tumor tissues”, the “total Bcl2 and Bax levels in tumor tissues” value [7] was “no significant changes in total Bcl2 and Bax levels” and the “activity against human lung cancer cells” value (human lung cancer cells) was “most potent activity”. The “binding after deletion of BH1” value [8] was “did not significantly affect its BDA-2 binding”, the “binding after deletion of BH2” value [9] was “did not significantly affect its BDA-2 binding” and the “binding to ΔBH4 Bcl2” value [10] was “failed to bind”. The “sensitivity of normal cells” value [11] was “less sensitive”, the “Bax binding to 6A7 antibody induced by compound-treated Bcl2” value (purified recombinant Bax; Bcl2 treated 1 h, then Bax 2 h) was “enhanced the ability of Bax to bind to 6A7 antibody” and the “Bax activation by WT Bcl2 in the presence of compound” value (purified recombinant Bax; WT Bcl2) was “can activate Bax via 6A7 conformational change”. The “direct activation of Bax” value (purified recombinant Bax; without Bcl2) was “not a direct Bax activator”, the “Bax activation by ΔBH3 mutant Bcl2 in the presence of compound” value (purified recombinant Bax; ΔBH3 mutant Bcl2) was “not” and the “resistance of Bax deficient MEF cells compared to WT MEF cells” value [12] was “significantly resistant”. The Bcl2/IP3R binding (H460 cells [13]) was “reduced Bcl2/IP3R binding”, the “Ca2+ release” value (H460 cells [13]) was “increased Ca2+ release” and the “sensitivity of cells overexpressing WT or single site Bcl2 mutants” value [14] was “enhanced sensitivity”.

Reference: US9980936B2, “BH4 antagonists and methods related thereto” (Emory University, priority 2014, dated 2018)
